In patent US20050208146A1, “Novel dosage and administration method for oral camptosar” (Pfizer Inc, priority 2003, published 2005):
Where “and” joins values, the source holds several entries; their conditions need not be identical. Equal values may be shown once. Entries after “also recorded” stand apart in the source; their conditions may differ.

Legend:
[1] = Comparison of exposure over 6-week period, oral vs IV irinotecan
[2] = Pharmacokinetics and absolute bioavailability at MTD, IV/oral cross-over in patients; conditions: for AUC(0-inf): 60 mg/m2, AUC0-inf; for Cmax: 60 mg/m2, Cmax
Experimental: (§1) The protocol had two stages, Stage A directed to dose escalation and Stage B directed to pharmacokinetics and bioavailability measurement. Patients were treated as in Table 3. […] MTD is defined as the dose level below which 2/3 or preferably 2/6 patients experience DLT.
(§2) In addition, evidence of antitumor activity can be evaluated.

solid tumors = assay: Best overall tumor response in patients treated with oral irinotecan; format: in vivo, human; conditions: oral irinotecan daily x5 q 3 weeks
Experimental: as §1, §2

clinical = conditions: human
[3] = Dose escalation to MTD, DLT and grade 3/4 toxicities of oral irinotecan semi-solid matrix capsules in patients with solid tumors; format: in vivo, human; conditions: for DLT (kind and grade) / Pts with DLT: first cycle
Experimental: Patients were treated as in Table 3. […]
Oral irinotecan can be formulated as follows.
The patients received starting doses of 50 (n=7), 60 (n=32), or 70 (n=4) mg/m^2/d. […] See also Tables 6 and 7.

[4] = IV Irinotecan, weekly x 4 q 6 weeks x 1 cycle, N=99
[5] = plasma, irinotecan 60 mg/m^2 IV, N=14
[6] = plasma, irinotecan 60 mg/m^2 PO, N=14
[7] = All Cycles, 60 mg/m^2/day, N=32

CCc1c2c(nc3ccc(O)cc13)-c1cc3c(c(=O)n1C2)COC(=O)[C@]3(O)CC [SN-38, 7-ethyl-10-hydroxycamptothecin]
AUC0-inf, exposure over 6-week period [1, 4]: 1,068 ng h/ml | Cmax [1, 4]: 28 ng/mL | Cmax ([1]; Oral Irinotecan, daily x 5 q 3 weeks x 2 cycles, N=14): 7.2 ng/mL | AUC0-inf, mean ± SD ([2]; irinotecan 60 mg/m^2 IV, N=14): 167 ± 77.8 ng·h/mL | AUC0-inf, median ([2]; irinotecan 60 mg/m^2 IV, N=14): 169 ng·h/mL | AUC0-inf, range ([2]; irinotecan 60 mg/m^2 IV, N=14): 55.1 to 358 ng·h/mL | t1/2, mean ± SD ([2]; irinotecan 60 mg/m^2 IV, N=14): 22.95 ± 19.41 h | t1/2, median ([2]; irinotecan 60 mg/m^2 IV, N=14): 19.31 h | t1/2, range ([2]; irinotecan 60 mg/m^2 IV, N=14): 8.63 to 94.9 h | tmax, median ([2]; irinotecan 60 mg/m^2 IV, N=14): 0.5 h | tmax, range ([2]; irinotecan 60 mg/m^2 IV, N=14): 0 to 2.0 h | tmax, mean ± SD ([2]; irinotecan 60 mg/m^2 IV, N=14, measured from start of 1.5-h infusion): 2.18 ± 1.99^2 h | PO/IV SN-38 AUC Ratio, Mean ± SD ([2]; irinotecan 60 mg/m^2 PO vs IV): 0.504±0.195 | PO/IV SN-38 AUC Ratio, Median ([2]; irinotecan 60 mg/m^2 PO vs IV): 0.447 | PO/IV SN-38 AUC Ratio, range ([2]; irinotecan 60 mg/m^2 PO vs IV): 0.257-0.945 | AUC0-inf, mean ± SD ([2]; irinotecan 60 mg/m^2 PO, N=14): 84.1 ± 54.7 ng·h/mL | AUC0-inf, median ([2]; irinotecan 60 mg/m^2 PO, N=14): 70.7 ng·h/mL | AUC0-inf, range ([2]; irinotecan 60 mg/m^2 PO, N=14): 22.8 to 223.6 ng·h/mL | t1/2, mean ± SD ([2]; irinotecan 60 mg/m^2 PO, N=14): 14.2 ± 5.87 h | t1/2, median ([2]; irinotecan 60 mg/m^2 PO, N=14): 13.4 h | t1/2, range ([2]; irinotecan 60 mg/m^2 PO, N=14): 4.7 to 25.7 h | tmax, mean ± SD ([2]; irinotecan 60 mg/m^2 PO, N=14): 2.97 ± 2.21 h | tmax, median ([2]; irinotecan 60 mg/m^2 PO, N=14): 2 h | tmax, range ([2]; irinotecan 60 mg/m^2 PO, N=14): 1.0 to 10.0 h | AUC of SN-38 following oral irinotecan as % of the value from an equivalent IV dose (mean±SD) ([2]; oral vs equivalent IV dose of irinotecan): 50±20% | Cmax, mean ± SD [2, 5]: 15.94 ± 7.83 ng/mL | Cmax, median [2, 5]: 13.8 ng/mL | Cmax, range [2, 5]: 7.26 to 36.9 ng/mL | Cmax, mean ± SD [2, 6]: 7.17 ± 3.90 ng/mL | Cmax, median [2, 6]: 3.91 ng/mL | Cmax, range [2, 6]: 1.31 to 14.8 ng/mL

CCc1c2c(nc3ccc(OC(=O)N4CCC(N5CCCCC5)CC4)cc13)-c1cc3c(c(=O)n1C2)COC(=O)[C@]3(O)CC [irinotecan, 7-ethyl-10-[4-(1-piperidino)-1-piperidino]-carbonyloxycamptothecin]
best overall tumor response: partial responses (solid tumors; esophageal and small cell lung cancer): Two confirmed partial responses | best overall tumor response: stable disease cases (solid tumors; variety of tumor types): thirteen stable disease cases | bioavailability ([2]; human, in vivo, Absolute bioavailabiity of irinotecan, Mean ± SD): 24 ± 23% | bioavailability ([2]; human, in vivo, Absolute bioavailabiity of irinotecan, Median): 15.4% | bioavailability ([2]; human, in vivo, Absolute bioavailabiity of irinotecan, range): 7.1 to 96% | Tmax ([2]; human, in vivo, iv, 60 mg/m2): End of 1.5-h | AUC(0-inf) ([2]; human, in vivo, iv, mean ± SD): 3020 ± 830 ng·h/mL | AUC(0-inf) ([2]; human, in vivo, iv, median): 2610 ng·h/mL | AUC(0-inf) ([2]; human, in vivo, iv, range): 1720 to 4790 ng·h/mL | Cmax ([2]; human, in vivo, iv, mean ± SD): 627 ± 142 ng/mL | Cmax ([2]; human, in vivo, iv, median): 593 ng/mL | Cmax ([2]; human, in vivo, iv, range): 416 to 897 ng/mL | tmax, mean ± SD ([2]; human, in vivo, po, 60 mg/m2): 3.15 ± 2.00 h | AUC(0-inf) ([2]; human, in vivo, po, mean ± SD): 732 ± 665 ng·h/mL | AUC(0-inf) ([2]; human, in vivo, po, median): 619 ng·h/mL | AUC(0-inf) ([2]; human, in vivo, po, range): 167 to 2500 ng·h/mL | Cmax ([2]; human, in vivo, po, mean ± SD): 73.1 ± 67.6 ng/mL | Cmax ([2]; human, in vivo, po, median, plasma, irinotecan 60 mg/m^2 PO, N=14): 60.1 ng/mL | Cmax ([2]; human, in vivo, po, range, plasma, irinotecan 60 mg/m^2 PO, N=14): 9.49 to 274 ng/mL | Tmax ([2]; human, in vivo, po, 60 mg/m2, tmax, mean ± SD): 3 ± 2.2 h | Tmax ([2]; human, in vivo, po, 60 mg/m2, tmax, range): 1 to 10 h | bioavailability ([2]; human, in vivo, po, absolute bioavailability (mean±SD)): 25 ± 23% | AUC(0-inf) (clinical; in vivo, iv): 42000 ng·h/mL | Cmax (clinical; in vivo, iv): 1500 ng/mL | AUC(0-inf) (clinical; plasma, po, 60 mg/m^2/daily): 7320 ng·h/mL | Cmax (clinical; plasma, po, 60 mg/m^2/daily): 73.1 ng/mL | Grade 3 and 4 Diarrhea ([3]; All Cycles, 50 mg/m^2/day, N=7): 14% | Grade 3 and 4 Nausea ([3]; All Cycles, 50 mg/m^2/day, N=7): 14% | Grade 3 and 4 Diarrhea [3, 7]: 16% | Grade 3 and 4 Nausea [3, 7]: 9% | Grade 3 and 4 Neutropenia [3, 7]: 9% | Grade 3 and 4 Neutropenic Fever [3, 7]: 3% | Grade 3 and 4 Vomiting [3, 7]: 12% | Grade 3 and 4 Diarrhea ([3]; All Cycles, 70 mg/m^2/day, N=4): 50% | Grade 3 and 4 Nausea ([3]; All Cycles, 70 mg/m^2/day, N=4): 3% | Grade 3 and 4 Neutropenia ([3]; All Cycles, 70 mg/m^2/day, N=4): 25% | Grade 3 and 4 Neutropenic Fever ([3]; All Cycles, 70 mg/m^2/day, N=4): 25% | Grade 3 and 4 Vomiting ([3]; All Cycles, 70 mg/m^2/day, N=4): 3% | Grade 3 and 4 Diarrhea ([3]; Cycle 1, 50 mg/m^2/day, N=7): 14% | Grade 3 and 4 Nausea ([3]; Cycle 1, 50 mg/m^2/day, N=7): 14% | Grade 3 and 4 Diarrhea ([3]; Cycle 1, 60 mg/m^2/day, N=32): 13% | Grade 3 and 4 Nausea ([3]; Cycle 1, 60 mg/m^2/day, N=32): 6% | Grade 3 and 4 Neutropenia ([3]; Cycle 1, 60 mg/m^2/day, N=32): 3% | Grade 3 and 4 Vomiting ([3]; Cycle 1, 60 mg/m^2/day, N=32): 9% | Grade 3 and 4 Diarrhea ([3]; Cycle 1, 70 mg/m^2/day, N=4): 50% | Grade 3 and 4 Neutropenia ([3]; Cycle 1, 70 mg/m^2/day, N=4): 25% | Grade 3 and 4 Neutropenic Fever ([3]; Cycle 1, 70 mg/m^2/day, N=4): 25% | recommended phase 11 dose ([3]; SSM oral irinotecan, for 5 days every 3 wks): 60 mg/m^2/daily | DLT (kind and grade) ([3]; Stage A, 50 mg/m^2/day oral): G3 diarrhea, G3 nausea, G3 dehydration; also recorded: Gr. 3 Nausea; also recorded: Gr. 3 Diarrhea; also recorded: Gr. 3 Dehydration | Pts with DLT ([3]; Stage A, 50 mg/m^2/day oral, 7 evaluable): 1/7 and 1 | DLT (kind and grade) ([3]; Stage A, 60 mg/m^2/day oral): None | Pts with DLT ([3]; Stage A, 60 mg/m^2/day oral, 8 evaluable): 0/8 and 0 | DLT (kind and grade) ([3]; Stage A, 70 mg/m^2/day oral): G3 diarrhea, G4 ANC [absolute neutrophil counts]; G4 diarrhea, fever, dehydration, fatigue; also recorded: Pt 1: gr. 3 Diarrhea,; also recorded: Pt 2: gr. 4 Diarrhea,; also recorded: gr. 4 Dehydration | Pts with DLT ([3]; Stage A, 70 mg/m^2/day oral, 4 evaluable): 2/4 and 2 | DLT (kind and grade) ([3]; Stage B, 60 mg/m^2/day oral): Pt 1: Gr. 3 Diarrhea; also recorded: Pt 2: Gr. 3 Dehydration; also recorded: Pt 7: Gr. 3 Diarrhea | Pts with DLT ([3]; Stage B, 60 mg/m^2/day oral, 24 evaluable): 7 | MTD ([3]; oral, encapsulated semi-solid matrix, daily x5 q 3 weeks): 60 mg/m^2/day
